Source: article PMC2772868 (Biochemistry, 2009)

B1: 40-bp natural lac operator (dsDNA)
DNA 1: TGTTGTGTGGAATTGTGAGCGGATAACAATTTCACACAGG
DNA 2: CCTGTGTGAAATTGTTATCCGCTCACAATTCCACACAACA

Assays:
[1] = target: LacI (lactose repressor protein) (Escherichia coli, UniProt P03023); format: binding
LacI wild-type = LacI wild-type (Escherichia coli, UniProt P03023 1-360); assay: filter binding
Chain of LacI wild-type (P03023 whole entry): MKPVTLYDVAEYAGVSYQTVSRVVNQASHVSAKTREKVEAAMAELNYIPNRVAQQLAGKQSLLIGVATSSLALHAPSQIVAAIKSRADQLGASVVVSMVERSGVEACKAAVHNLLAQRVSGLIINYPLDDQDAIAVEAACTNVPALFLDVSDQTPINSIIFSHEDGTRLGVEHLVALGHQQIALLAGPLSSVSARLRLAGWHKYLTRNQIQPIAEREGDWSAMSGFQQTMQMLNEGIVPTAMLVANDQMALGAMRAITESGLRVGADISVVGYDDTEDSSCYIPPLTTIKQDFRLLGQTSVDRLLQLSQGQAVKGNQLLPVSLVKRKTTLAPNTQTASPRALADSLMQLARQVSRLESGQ

Chain of LacI (lactose repressor protein) (P03023 whole entry): as above

Molecule	EC50 [1] [nM]	Kd (LacI wild-type) [nM]
CC(C)S[C@@H]1O[C@H](CO)[C@H](O)[C@H](O)[C@H]1O [IPTG, isopropyl-β-D-thiogalactoside]	2200	
B1		0.022 ± 0.002
